According to US11352322B2, “Cyclopropyl-amide compounds as dual LSD1/HDAC inhibitors” (Jubilant Epicore LLC, priority 2016, dated 2022):
Structures can show the parent of a compound that is named as a salt. Where two headings read alike, the source gives them in different places.

Legend:
LSD1 = LSD1 (Homo sapiens (Human), UniProt O60341); assay: TR-FRET Assay for LSD1; conditions: read-out: LSD1 IC50
Procedure: TR-FRET Assay for LSD1 (Perkin Elmer)
Tranylcypromine (TCP), LSD1 inhibitor was procured from Selleckchem. […] Stop Solution containing 300 μM tranylcypromine in 1× LANCE Detection Buffer was added to the wells and incubated for 5 min at RT. Then, Detection mix containing 2 nM Eu-Ab and 50 nM ULight-Streptavidin in 1× LANCE Detection Buffer was prepared and added to the reaction mix. This mixture was incubated for 1 hour at room temperature.

MM1S = assay: Anticancer activity: Alamar Blue assay, MM1S; format: cell-based; conditions: Homo sapiens, MM1.S, read-out: MM1S EC50
[1] = Metabolic stability in liver microsomes, HLM; conditions: 1 μM, NADPH
Procedure: (§4) The microsomal suspension was prepared by adding liver microsomes to 100 mM potassium phosphate buffer (pH7.4) to give a final protein concentration of 0.5 mg/mL. The stock solution of NCE (10 mM in DMSO) was added to the microsomes to provide a final concentration of 1 μM. […] Samples were vortexed and centrifuged at 5,000 rpm for 10 min to remove proteins. Supernatant were analyzed on LC-MS/MS.

[2] = Metabolic stability in liver microsomes, MLM; conditions: 1 μM, NADPH
Procedure: as §4

CCRF-CEM = assay: cells; conditions: Homo sapiens, 144 h, read-out: Anticancer profileration EC50 CCRF-CEM
Procedure: (§1) Anticancer Activity: Alamar Blue Assay
(§2) Cells were seeded at 5000 cells/per well in 96-well tissue culture plate and incubated at 37° C./5% CO2. After 16-24 hours, fresh media was added to the wells. Compounds were then (1% DMSO conc.) added to the cells at 10 concentrations ranging from 10-0.0005 uM prepared in 3-fold serial dilutions. Cells were incubated for 68-72 h at 37° C./5% CO2. Alamar Blue™ reagent was added and incubated for 1-3 hours at 37° C./5% CO2. Plates were read on fluorescence reader at 540 nm excitation, 590 nm emission wave lengths.
(§3) As described above, compounds were tested for anticancer activities in different tumor cell lines and GI50 were determined.

HEL-92.1.7 = assay: cells; conditions: Homo sapiens, HEL 92.1.7, 144 h, read-out: Anticancer profileration EC50 HEL-92.1.7
Procedure: as §1
as §2, with “Cells were incubated for 68-72 h at 37° C./5% CO2.” left out
as §3

OCI-AML3 = assay: cells; conditions: Homo sapiens, OCI-AML-3, 144 h, read-out: Anticancer profileration EC50 OCI-AML3
Procedure: as §1
as §2, with “Cells were incubated for 68-72 h at 37° C./5% CO2.” left out
as §3

A375 = assay: cells; conditions: Homo sapiens, A-375, 144 h, read-out: Anticancer profileration EC50 A375
Procedure: as §1
as §2, with “Cells were incubated for 68-72 h at 37° C./5% CO2.” left out
as §3

MV-4-11 = assay: cells; conditions: Homo sapiens, MV4-11, 144 h, read-out: Anticancer profileration EC50 MV-4-11
Procedure: as §1
as §2, with “Cells were incubated for 68-72 h at 37° C./5% CO2.” left out
as §3

MDAMB231 = assay: cells; conditions: Homo sapiens, MDA-MB-231, 144 h, read-out: Anticancer profileration EC50 MDAMB231
Procedure: as §1
as §2, with “Cells were incubated for 68-72 h at 37° C./5% CO2.” left out
as §3

[3] = molecular target: HDAC6 human recombinant enzyme (Homo sapiens (Human), UniProt Q9UBN7); assay: Histone Deacetylase Assay (BPS Biosciences), HDAC6; format: biochemical
HDAC6 human recombinant enzyme, sequence (Q9UBN7 whole entry): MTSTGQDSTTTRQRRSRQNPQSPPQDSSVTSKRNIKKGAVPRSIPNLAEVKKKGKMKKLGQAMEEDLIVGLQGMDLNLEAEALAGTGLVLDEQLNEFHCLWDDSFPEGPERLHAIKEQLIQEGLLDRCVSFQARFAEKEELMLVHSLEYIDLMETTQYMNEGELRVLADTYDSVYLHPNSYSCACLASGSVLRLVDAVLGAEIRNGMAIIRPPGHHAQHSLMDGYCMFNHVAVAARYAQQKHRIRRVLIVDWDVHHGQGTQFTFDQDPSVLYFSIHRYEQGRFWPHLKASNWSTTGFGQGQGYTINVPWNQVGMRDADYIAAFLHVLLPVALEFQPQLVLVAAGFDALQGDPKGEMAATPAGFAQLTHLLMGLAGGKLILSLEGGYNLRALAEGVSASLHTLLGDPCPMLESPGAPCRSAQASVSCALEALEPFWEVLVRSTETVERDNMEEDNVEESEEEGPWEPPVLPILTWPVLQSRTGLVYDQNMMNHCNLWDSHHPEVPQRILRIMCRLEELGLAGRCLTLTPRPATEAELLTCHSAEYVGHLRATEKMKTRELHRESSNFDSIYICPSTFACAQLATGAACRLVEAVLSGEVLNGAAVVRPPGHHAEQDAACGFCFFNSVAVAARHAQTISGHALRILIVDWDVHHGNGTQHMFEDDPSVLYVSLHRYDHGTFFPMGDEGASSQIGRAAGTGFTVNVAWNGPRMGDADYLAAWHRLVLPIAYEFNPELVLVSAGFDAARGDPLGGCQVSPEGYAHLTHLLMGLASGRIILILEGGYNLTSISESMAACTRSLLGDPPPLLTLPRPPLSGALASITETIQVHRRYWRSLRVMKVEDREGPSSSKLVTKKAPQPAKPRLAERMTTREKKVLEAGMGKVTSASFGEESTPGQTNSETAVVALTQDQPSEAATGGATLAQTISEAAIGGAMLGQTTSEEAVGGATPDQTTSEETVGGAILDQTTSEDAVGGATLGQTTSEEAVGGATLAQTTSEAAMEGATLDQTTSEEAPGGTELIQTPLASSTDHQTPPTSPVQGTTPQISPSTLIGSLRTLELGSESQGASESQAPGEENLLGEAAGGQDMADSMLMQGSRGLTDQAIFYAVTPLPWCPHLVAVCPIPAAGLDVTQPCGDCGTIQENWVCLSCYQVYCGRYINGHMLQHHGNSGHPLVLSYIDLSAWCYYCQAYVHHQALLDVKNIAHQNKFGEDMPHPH
Excerpt: Histone Deacetylase Assay (BPS Biosciences)
Histone deacetylase assay was done as per manufacturer's instructions.

[4] = human, microsomes, 0.5 h, pH 7.4
Procedure: as §4

[5] = mouse, microsomes, 0.5 h, pH 7.4
Procedure: as §4

Structure (SMILES)	IC50 (LSD1) [nM]	EC50 (MM1S) [nM]	Metabolic stability HLM % remaining in 30 min [1] [%]	Metabolic stability MLM % remaining in 30 min [2] [%]	EC50 (CCRF-CEM) [nM]	EC50 (HEL-92.1.7) [nM]	EC50 (OCI-AML3) [nM]	EC50 (A375) [nM]	EC50 (MV-4-11) [nM]	EC50 (MDAMB231) [nM]	IC50 [3] [nM]	Metabolic stability HLM % remaining in 30 min [4]	EC50 (MM1S; MM1S cells) [nM]	Metabolic stability MLM % remaining in 30 min [5]
O=C(/C=C/c1ccc(CNC2CC2c2ccc(-c3ccc(Cl)cc3)cc2)cc1)NO (stereo not drawn) [Example 5, (E)-3-(4-(((2-(4′-chloro-[1,1′-biphenyl]-4-yl)cyclopropyl)amino)methyl)phenyl)-N-hydroxyacrylamide TFA Salt]	49	88	86	59	533	26	146	2300	54	1600				
O=C(NO)c1cnc(N2CCC(CNC3CC3c3ccc(F)cc3)CC2)nc1 (stereo not drawn) [Example 8, 2-(4-(((2-(4-fluorophenyl)cyclopropyl)amino)methyl)piperidin-1-yl)-N-hydroxypyrimidine-5-carboxamide TFA Salt]		7	88	52	119	42	46	698	48	193	88			
O=C(NO)c1ccc(CCCN2CC3(CC(NC4CC4c4ccccc4)C3)C2)cc1 (stereo not drawn) [Example 46, N-hydroxy-4-(3-(6-((2-phenylcyclopropyl)amino)-2-azaspiro[3.3]heptan-2-1)propyl)benzamide TFA Salt]	26										477	54/47%	71	54/47%
O=C(NO)c1ccc(CCCN2CCC(CNC3CC3c3ccc(F)cc3)CC2)cc1 (stereo not drawn) [Example 47, 4-[3-(4-{[2-(4-Fluoro-phenyl)-cyclopropylamino]-methyl}-piperidin-1-yl)-propyl]-N-hydroxy-benzamide TFA Salt]	6		54	66	1400	5	146	3600	5	875	51			
O=C(NO)c1ccc(CCCN2CCC(CNC3CC3c3ccc(OCc4ccc(F)cc4)cc3)CC2)cc1 (stereo not drawn) [Example 52, 4-(3-(4-(((2-(4-((4-fluorobenzyl)oxy)phenyl)cyclopropyl)amino)methyl)piperidin-1-yl)propyl)-N-hydroxybenzamide TFA Salt]	4		79	56	371	5	22	1700	1	891	12			
